Laboratory results as given in EP0908457B1, “3-(1,2-benzisothiazol- and isoxazol-5-Y1)-2,4(1H,3H)-pyrimidinedione or thione and 3-(1,2-benzisothiazol- and isoxazol-5-y1)-4(3H)-pyrimidinone or thione herbicidal agents” (BASF AKTIENGESELLSCHAFT, priority 1997, dated 1999).

Key:
[1] = test system: Cyperus serotinus, Rottb.; assay: Preemergence weed control under flooded paddy conditions, CYPSE (Flatsedge); type: in vivo; conditions: for CYPSE: herbicidal effect rating 0-9, three to four weeks after treatment; on herbicidal effect rating, CYPSE: meaning of each grade not given here
[2] = test system: Oryza sativa, (L.) Tebonnet; assay: Rice tolerance to post-transplant applications under flooded paddy conditions (Example 187), ORYSAT (Rice, Tebonnet); conditions: for ORYSAT: herbicidal effect rating 0-9, three to four weeks after treatment; on herbicidal effect rating ORYSAT: meaning of each grade not given here
[3] = test system: Monochoria vaginalis, Presl.; assay: Preemergence weed control under flooded paddy conditions, MOOVA (Monochoria); type: in vivo; conditions: flooded paddy; for MOOVA: herbicidal effect rating 0-9, three to four weeks after treatment; on herbicidal effect rating, MOOVA: meaning of each grade not given here
Cyperus iria = assay: Preemergence weed control under flooded paddy conditions, CYPIR (Rice Flatsedge); type: in vivo; conditions: flooded paddy; for CYPIR: herbicidal effect rating 0-9, three to four weeks after treatment; on herbicidal effect rating, CYPIR: meaning of each grade not given here
[4] = test system: Echinochloa oryzoides (Ard.) Fritsch.; assay: Preemergence weed control under flooded paddy conditions, ECHORC (Watergrass (Calif.)); type: in vivo; conditions: flooded paddy; for ECHORC: herbicidal effect rating 0-9, three to four weeks after treatment; on herbicidal effect rating, ECHORC: meaning of each grade not given here
Sagittaria pygmaea, L. = assay: Preemergence weed control under flooded paddy conditions, SAGPY (Arrowhead (Pygmaea)); type: in vivo; conditions: flooded paddy; for SAGPY: herbicidal effect rating 0-9, three to four weeks after treatment; on herbicidal effect rating, SAGPY: meaning of each grade not given here
[5] = Rate 0.0320 kg/ha, preemergence, rated 3-4 weeks after treatment
[6] = Rate 0.0620 kg/ha, preemergence, rated 3-4 weeks after treatment
[7] = Rate 0.1250 kg/ha, preemergence, rated 3-4 weeks after treatment
[8] = Rate 0.2500 kg/ha, preemergence, rated 3-4 weeks after treatment
[9] = 0.0320 kg/ha, preemergence weeds
[10] = 0.0620 kg/ha, preemergence weeds
[11] = 0.1250 kg/ha, preemergence weeds
[12] = 0.2500 kg/ha, preemergence weeds
[13] = Rate 0.0320 kg/ha, preemergence weeds, rated three to four weeks after treatment
[14] = Rate 0.0620 kg/ha, preemergence weeds, rated three to four weeks after treatment
[15] = Rate 0.1250 kg/ha, preemergence weeds, rated three to four weeks after treatment
[16] = Rate 0.2500 kg/ha, preemergence weeds, rated three to four weeks after treatment
[17] = Rate 0.0320 kg/ha, rated three to four weeks after treatment
[18] = Rate 0.0620 kg/ha, rated three to four weeks after treatment
[19] = Rate 0.1250 kg/ha, rated three to four weeks after treatment
[20] = Rate 0.2500 kg/ha, rated three to four weeks after treatment
[21] = Rate 0.0320 kg/ha, preemergence, rated three to four weeks after treatment
[22] = Rate 0.0620 kg/ha, preemergence, rated three to four weeks after treatment
[23] = Rate 0.1250 kg/ha, preemergence, rated three to four weeks after treatment
[24] = Rate 0.5000 kg/ha, preemergence, rated three to four weeks after treatment
[25] = Rate 0.2500 kg/ha, preemergence, rated three to four weeks after treatment

COCCCOCCCOC(=O)COc1ccc(C)cc1-c1nsc2ccc(-n3c(=O)cc(C(F)(F)F)n(C)c3=O)cc12 [Example 523, Acetic acid, {{2-{5-[3,6-dihydro-3-methyl-2,6-dioxo-4-(trifluoromethyl)-1(2H)-pyrimidinyl]-1,2-benzisothiazol-3-yl}-p-tolyl}oxy}-, 3-(3-methoxypropoxy)propyl ester]
herbicidal effect rating, CYPSE [1, 5]: 0.0
herbicidal effect rating, CYPSE [1, 6]: 0.0
herbicidal effect rating, CYPSE [1, 7]: 2.0
herbicidal effect rating, CYPSE [1, 8]: 9.0
herbicidal effect rating ORYSAT ([2]; Rate 0.0320 kg/ha, rated 3-4 weeks after treatment): 4.5
herbicidal effect rating ORYSAT ([2]; Rate 0.0620 kg/ha, rated 3-4 weeks after treatment): 4.5
herbicidal effect rating ORYSAT ([2]; Rate 0.1250 kg/ha, rated 3-4 weeks after treatment): 5.5
herbicidal effect rating ORYSAT ([2]; Rate 0.2500 kg/ha, rated 3-4 weeks after treatment): 7.0
herbicidal effect rating, MOOVA [3, 5]: 8.0
herbicidal effect rating, MOOVA [3, 6]: 9.0
herbicidal effect rating, MOOVA [3, 7]: 9.0
herbicidal effect rating, MOOVA [3, 8]: 9.0
herbicidal effect rating, CYPIR (Cyperus iria; [5]): 0.0
herbicidal effect rating, CYPIR (Cyperus iria; [6]): 2.0
herbicidal effect rating, CYPIR (Cyperus iria; [7]): 4.0
herbicidal effect rating, CYPIR (Cyperus iria; [8]): 8.0
herbicidal effect rating, ECHORC [4, 5]: 6.0
herbicidal effect rating, ECHORC [4, 6]: 8.0
herbicidal effect rating, ECHORC [4, 7]: 8.0
herbicidal effect rating, ECHORC [4, 8]: 9.0
herbicidal effect rating, SAGPY (Sagittaria pygmaea, L.; [5]): 0.0
herbicidal effect rating, SAGPY (Sagittaria pygmaea, L.; [6]): 0.0
herbicidal effect rating, SAGPY (Sagittaria pygmaea, L.; [7]): 0.0
herbicidal effect rating, SAGPY (Sagittaria pygmaea, L.; [8]): 0.0

CCOC(=O)c1nsc2cc(F)c(-n3c(=O)cc(C(F)(F)F)n(C)c3=O)cc12 [Example 423, 1,2-Benzisothiazole-3-carboxylic acid, 5-[3,6-dihydro-3-methyl-2,6-dioxo-4-(trifluoromethyl)-1(2H)-pyrimidinyl]-6-fluoro-, ethyl ester]
CYPSE [1, 9]: 9.0
CYPSE [1, 10]: 9.0
CYPSE [1, 11]: 9.0
CYPSE [1, 12]: 9.0
ORYSAT ([2]; 0.0320 kg/ha): 5.0
ORYSAT ([2]; 0.0620 kg/ha): 6.0
ORYSAT ([2]; 0.1250 kg/ha): 7.0
ORYSAT ([2]; 0.2500 kg/ha): 7.0
MOOVA [3, 9]: 9.0
MOOVA [3, 10]: 9.0
MOOVA [3, 11]: 9.0
MOOVA [3, 12]: 9.0
CYPIR (Cyperus iria; [9]): 6.0
CYPIR (Cyperus iria; [10]): 7.0
CYPIR (Cyperus iria; [11]): 9.0
CYPIR (Cyperus iria; [12]): 9.0
ECHORC [4, 9]: 6.0
ECHORC [4, 10]: 9.0
ECHORC [4, 11]: 9.0
ECHORC [4, 12]: 9.0
SAGPY (Sagittaria pygmaea, L.; [9]): 9.0
SAGPY (Sagittaria pygmaea, L.; [10]): 9.0
SAGPY (Sagittaria pygmaea, L.; [11]): 9.0
SAGPY (Sagittaria pygmaea, L.; [12]): 9.0

CC(=O)c1nsc2ccc(-n3c(=O)cc(C(F)(F)F)n(C)c3=O)cc12 [Example 307, 2,4(1H,3H)-Pyrimidinedione, 3-(3-acetyl-1,2-benzisothiazol-5-yl)-1-methyl-6-(trifluoromethyl)-]
herbicidal effect rating, CYPSE [1, 13]: 0.0
herbicidal effect rating, CYPSE [1, 14]: 3.5
herbicidal effect rating, CYPSE [1, 15]: 7.0
herbicidal effect rating, CYPSE [1, 16]: 9.0
herbicidal effect rating ORYSAT [2, 17]: 5.0
herbicidal effect rating ORYSAT [2, 18]: 6.0
herbicidal effect rating ORYSAT [2, 19]: 8.5
herbicidal effect rating ORYSAT [2, 20]: 9.0
herbicidal effect rating, MOOVA [3, 13]: 6.0
herbicidal effect rating, MOOVA [3, 14]: 8.0
herbicidal effect rating, MOOVA [3, 15]: 9.0
herbicidal effect rating, MOOVA [3, 16]: 9.0
herbicidal effect rating, CYPIR (Cyperus iria; [13]): 6.5
herbicidal effect rating, CYPIR (Cyperus iria; [14]): 6.5
herbicidal effect rating, CYPIR (Cyperus iria; [15]): 6.5
herbicidal effect rating, CYPIR (Cyperus iria; [16]): 7.5
herbicidal effect rating, ECHORC [4, 13]: 6.0
herbicidal effect rating, ECHORC [4, 14]: 5.0
herbicidal effect rating, ECHORC [4, 15]: 8.5
herbicidal effect rating, ECHORC [4, 16]: 9.0
herbicidal effect rating, SAGPY (Sagittaria pygmaea, L.; [13]): 0.0
herbicidal effect rating, SAGPY (Sagittaria pygmaea, L.; [14]): 1.0
herbicidal effect rating, SAGPY (Sagittaria pygmaea, L.; [15]): 6.5
herbicidal effect rating, SAGPY (Sagittaria pygmaea, L.; [16]): 9.0

COC(=O)/C=C/c1nsc2ccc(-n3c(=O)cc(C(F)(F)F)n(C)c3=O)cc12 [Example 279, 1,2-Benzisothiazole-3-acrylic acid, 5-[3,6-dihydro-3-methyl-2,6-dioxo-4-(trifluoromethyl)-1(2H)-pyrimidinyl]-, methyl ester, (E)-]
CYPSE herbicidal effect rating [1, 21]: 0.0
CYPSE herbicidal effect rating [1, 22]: 0.0
CYPSE herbicidal effect rating [1, 23]: 0.0
CYPSE herbicidal effect rating [1, 24]: 5.0
ORYSAT herbicidal effect rating [2, 17]: 2.0
ORYSAT herbicidal effect rating [2, 18]: 3.0
ORYSAT herbicidal effect rating [2, 19]: 4.0
ORYSAT herbicidal effect rating [2, 20]: 4.0
ORYSAT herbicidal effect rating ([2]; Rate 0.5000 kg/ha, rated three to four weeks after treatment): 6.0
MOOVA herbicidal effect rating [3, 23]: 8.0
MOOVA herbicidal effect rating [3, 25]: 9.0
MOOVA herbicidal effect rating [3, 24]: 9.0
CYPIR herbicidal effect rating (Cyperus iria; [21]): 0.0
CYPIR herbicidal effect rating (Cyperus iria; [22]): 0.0
CYPIR herbicidal effect rating (Cyperus iria; [23]): 2.0
CYPIR herbicidal effect rating (Cyperus iria; [25]): 6.0
CYPIR herbicidal effect rating (Cyperus iria; [24]): 9.0
ECHORC herbicidal effect rating [4, 21]: 0.0
ECHORC herbicidal effect rating [4, 22]: 5.7
ECHORC herbicidal effect rating [4, 23]: 6.1
ECHORC herbicidal effect rating [4, 25]: 6.0
ECHORC herbicidal effect rating [4, 24]: 7.0
SAGPY herbicidal effect rating (Sagittaria pygmaea, L.; [21]): 0.0
SAGPY herbicidal effect rating (Sagittaria pygmaea, L.; [22]): 0.0
SAGPY herbicidal effect rating (Sagittaria pygmaea, L.; [23]): 0.0
SAGPY herbicidal effect rating (Sagittaria pygmaea, L.; [25]): 4.0
SAGPY herbicidal effect rating (Sagittaria pygmaea, L.; [24]): 9.0
